Experimental data reported in patent US20260297118A1, “SUBSTITUTED PYRIMIDINONE AND AZAPYRIMIDINONE COMPOUNDS, COMPOSITIONS, AND USES THEREOF” (LAKEWOOD AMEDEX, INC., priority 2023, published 2026).

Key:
Type in all cases: cell-based
E. faecalis MMX-3353 = experiment: MIC, broth microdilution, E. faecalis MMX-3353; settings: E. faecalis MMX-3353, Gram +ve; pH 3; 18 to 24 hours
Method: (§1) MIC testing is conducted using the broth (Mueller Hinton Broth) microdilution procedures relevant to each organism group as established by the Clinical and Laboratory Standards Institute (CLSI; 3-7). MIC plates are prepared in accordance with CLSI (3-7). To prepare the test plates, automated liquid handlers are used to conduct serial dilutions and liquid transfers. Automated liquid handlers utilized in this study include the Multidrop 384 (Labsystems, Helsinki, Finland) and the Biomek 2000 (Beckman Coulter, Fullerton CA). The solution is diluted to desired pH using 1 M Citric Acid or 1 M NaOH buffer. A standardized inoculum of each test organism is prepared per CLSI methods (3, 5-7) to equal a 0.5 McFarland standard in the appropriate media followed by an additional 1:20 dilution (1:10 for anaerobes).
(§2) The plates are then inoculated with 10 μL of the diluted 0.5 McFarland suspension using the Biomek 2000 from low to high drug concentration, resulting in a final concentration of approximately 5×10^5 CFU/mL per well. An un-inoculated plate is incubated for the purpose of assessing solubility of the drug in the test media. The plates are stacked 3 to 4 high, covered with a sterile lid on the top plate, and incubated for 18 to 24 hours according to CLSI. The MIC is recorded as the lowest concentration of respective compound that inhibited visible growth of the organism.

[1] = system: S. dysgalactiae ATCC-6644; experiment: MIC, broth microdilution, S. dysgalactiae ATCC-6644; set-up: unit not given beside the values; settings: S. dysgalactiae ATCC-6644, Gram +ve; pH 3; 18 to 24 hours
Method: as §1, §2

E. coli MMX-8870 = experiment: MIC, broth microdilution, E. coli MMX-8870; settings: E. coli MMX-8870, Gram −ve; pH 3; 18 to 24 hours
Method: as §1, §2

[2] = system: K. pneumoniae ATCC BAA-2146; experiment: MIC, broth microdilution, K. pneumoniae ATCC BAA-2146; set-up: unit not given beside the values; settings: K. pneumoniae ATCC BAA-2146, Gram −ve; pH 3; 18 to 24 hours
Method: as §1, §2

S. agalactiae ATCC-13813 = experiment: MIC, broth microdilution, S. agalactiae ATCC-13813; set-up: unit not given beside the values; settings: S. agalactiae ATCC-13813, Gram +ve; pH 3; 18 to 24 hours
Method: as §1, §2

[3] = system: Pseudomonas aeruginosa (27853); experiment: MIC, broth microdilution, Pseudomonas aeruginosa (27853); settings: pH 3, Mueller Hinton Broth, 18 to 24 hours, read-out: MIC
Method: as §1, §2

[4] = system: S. saprophyticus ATCC-49907; experiment: MIC, broth microdilution, S. saprophyticus ATCC-49907; set-up: unit not given beside the values; settings: S. saprophyticus ATCC-49907, Gram +ve; pH 3; 18 to 24 hours
Method: as §1, §2

S. aureus ATCC -3591 = experiment: MIC, broth microdilution, S. aureus ATCC -3591; set-up: unit not given beside the values; settings: S. aureus ATCC -3591, Gram +ve; pH 3; 18 to 24 hours
Method: as §1, §2

[5] = system: A. radioresistens MMX-8551; experiment: MIC, broth microdilution, A. radioresistens MMX-8551; set-up: unit not given beside the values; settings: A. radioresistens MMX-8551, Gram −ve; pH 3; 18 to 24 hours
Method: as §1, §2

C. freundii CDC-0157 = experiment: MIC, broth microdilution, C. freundii CDC-0157; set-up: unit not given beside the values; settings: C. freundii CDC-0157, Gram −ve; pH 3; 18 to 24 hours
Method: as §1, §2

E. faecalis ATCC-29212 = experiment: MIC, broth microdilution, E. faecalis ATCC-29212; set-up: unit not given beside the values; settings: E. faecalis ATCC-29212, Gram +ve; pH 3; 18 to 24 hours
Method: as §1, §2

H. influenzae ATCC-49247 = experiment: MIC, broth microdilution, H. influenzae ATCC-49247; set-up: unit not given beside the values; settings: H. influenzae ATCC-49247, Gram −ve; pH 3; 18 to 24 hours
Method: as §1, §2

E. coli ATCC-25922 = experiment: MIC, broth microdilution, E. coli ATCC-25922; set-up: unit not given beside the values; settings: E. coli ATCC-25922, Gram −ve; pH 3; 18 to 24 hours
Method: as §1, §2

E. cloacae ATCC BAA-2468 = experiment: MIC, broth microdilution, E. cloacae ATCC BAA-2468; set-up: unit not given beside the values; settings: E. cloacae ATCC BAA-2468, Gram −ve; pH 3; 18 to 24 hours
Method: as §1, §2

P. aeruginosa ATCC-27853 = experiment: MIC, broth microdilution, P. aeruginosa ATCC-27853; set-up: unit not given beside the values; settings: P. aeruginosa ATCC-27853, Gram −ve; pH 3; 18 to 24 hours
Method: as §1, §2

Escherichia coli (25922) = experiment: MIC, broth microdilution, Escherichia coli (25922); settings: pH 3, Mueller Hinton Broth, 18 to 24 hours, read-out: MIC
Method: as §1, §2

K. pneumoniae ATCC-43816 = experiment: MIC, broth microdilution, K. pneumoniae ATCC-43816; set-up: unit not given beside the values; settings: K. pneumoniae ATCC-43816, Gram −ve; pH 3; 18 to 24 hours
Method: as §1, §2

E. faecium ATCC-35667 = experiment: MIC, broth microdilution, E. faecium ATCC-35667; settings: E. faecium ATCC-35667, Gram +ve; pH 3; 18 to 24 hours
Method: as §1, §2

[6] = system: Staphylococcus aureus (43330); experiment: MIC, broth microdilution, Staphylococcus aureus (43330); settings: pH 3, Mueller Hinton Broth, 18 to 24 hours, read-out: MIC
Method: as §1, §2

S. pyogenes ATCC-49399 = experiment: MIC, broth microdilution, S. pyogenes ATCC-49399; set-up: unit not given beside the values; settings: S. pyogenes ATCC-49399, Gram +ve; pH 3; 18 to 24 hours
Method: as §1, §2

M. morganii CDC-0519 = experiment: MIC, broth microdilution, M. morganii CDC-0519; set-up: unit not given beside the values; settings: M. morganii CDC-0519, Gram −ve; pH 3; 18 to 24 hours
Method: as §1, §2

A. baumannii ATCC-19606 = experiment: MIC, broth microdilution, A. baumannii ATCC-19606; set-up: unit not given beside the values; settings: A. baumannii ATCC-19606, Gram −ve; pH 3; 18 to 24 hours
Method: as §1, §2

[7] = system: S. haemolyticus ATCC-29970; experiment: MIC, broth microdilution, S. haemolyticus ATCC-29970; settings: S. haemolyticus ATCC-29970, Gram +ve; pH 3; 18 to 24 hours
Method: as §1, §2

Candida albicans (22972) = experiment: MIC, broth microdilution, Candida albicans (22972); settings: pH 3, Mueller Hinton Broth, 18 to 24 hours, read-out: MIC
Method: as §1, §2

S. aureus ATCC-29213 = experiment: MIC, broth microdilution, S. aureus ATCC-29213; set-up: unit not given beside the values; settings: S. aureus ATCC-29213, Gram +ve; pH 3; 18 to 24 hours
Method: as §1, §2

P. mirabilis CDC-0155 = experiment: MIC, broth microdilution, P. mirabilis CDC-0155; set-up: unit not given beside the values; settings: P. mirabilis CDC-0155, Gram −ve; pH 3; 18 to 24 hours
Method: as §1, §2

E. faecium MMX-3355 = experiment: MIC, broth microdilution, E. faecium MMX-3355; set-up: unit not given beside the values; settings: E. faecium MMX-3355, Gram +ve; pH 3; 18 to 24 hours
Method: as §1, §2

C. striatum ATCC-6940 = experiment: MIC, broth microdilution, C. striatum ATCC-6940; settings: C. striatum ATCC-6940, Gram +ve; pH 3; 18 to 24 hours
Method: as §1, §2

[8] = system: Pseudomonas aeruginosa (6326); experiment: MIC, broth microdilution, Pseudomonas aeruginosa (6326); settings: pH 4-5, 18 to 24 hours
Method: as §1, §2

Escherichia coli (0102) = experiment: MIC, broth microdilution, Escherichia coli (0102); settings: pH 4-5, 18 to 24 hours
Method: as §1, §2

[9] = system: Pseudomonas aeruginosa (6160); experiment: MIC, broth microdilution, Pseudomonas aeruginosa (6160); settings: pH 4-5, 18 to 24 hours
Method: as §1, §2

Escherichia coli (6259) = experiment: MIC, broth microdilution, Escherichia coli (6259); settings: pH 4-5, 18 to 24 hours
Method: as §1, §2

Escherichia coli (6258) = experiment: MIC, broth microdilution, Escherichia coli (6258); settings: pH 4-5, 18 to 24 hours
Method: as §1, §2

Escherichia coli (6260) = experiment: MIC, broth microdilution, Escherichia coli (6260); settings: pH 4-5, 18 to 24 hours
Method: as §1, §2

[10] = system: Pseudomonas aeruginosa (6234); experiment: MIC, broth microdilution, Pseudomonas aeruginosa (6234); settings: pH 4-5, 18 to 24 hours
Method: as §1, §2

Escherichia coli (6098) = experiment: MIC, broth microdilution, Escherichia coli (6098); settings: pH 4-5, 18 to 24 hours
Method: as §1, §2

[11] = system: Pseudomonas aeruginosa (6328); experiment: MIC, broth microdilution, Pseudomonas aeruginosa (6328); settings: pH 4-5, 18 to 24 hours
Method: as §1, §2

[12] = system: Pseudomonas aeruginosa (0103); experiment: MIC, broth microdilution, Pseudomonas aeruginosa (0103); settings: pH 4-5, 18 to 24 hours
Method: as §1, §2

CCCCOP(=O)(O)OC[C@H]1O[C@@H](n2ccc(N(C)C)nc2=O)C(F)(F)[C@@H]1O [LAK-023, (2R,3S,5R)-5-(4-N,N-dimethylamino-2-oxopyrimidin-1(2H)-yl)-2,2-difluoro-3-hydroxytetrahydrofuranyl-2-methyl butyl phosphate]
MIC (E. faecalis MMX-3353): 6.25 | MIC [1]: 0.78 | MIC (E. coli MMX-8870): 0.78 | MIC [2]: 0.78 | MIC (S. agalactiae ATCC-13813): 0.39 | MIC [3]: 0.4 mg/mL | MIC [4]: 1.56 | MIC (S. aureus ATCC -3591): 6.25 | MIC [5]: 0.78 | MIC (C. freundii CDC-0157): 1.56 | MIC (E. faecalis ATCC-29212): 3.13 | MIC (H. influenzae ATCC-49247): 0.39 | MIC (E. coli ATCC-25922): 0.78 | MIC (E. cloacae ATCC BAA-2468): 0.78 | MIC (P. aeruginosa ATCC-27853): 0.39 | MIC (Escherichia coli (25922)): 0.8 mg/mL | MIC (K. pneumoniae ATCC-43816): 1.56 | MIC (E. faecium ATCC-35667): 3.13 | MIC [6]: 3.8 mg/mL | MIC (S. pyogenes ATCC-49399): 1.56 | MIC (M. morganii CDC-0519): 3.13 | MIC (A. baumannii ATCC-19606): 0.78 | MIC [7]: 0.78 | MIC (Candida albicans (22972)): > 12.5 mg/mL | MIC (S. aureus ATCC-29213): 1.56 | MIC (P. mirabilis CDC-0155): 1.56 | MIC (E. faecium MMX-3355): 1.56 | MIC (C. striatum ATCC-6940): 1.56

CCCCOP(=O)(O)OC[C@H]1O[C@@H](n2ccc(N)nc2=O)C[C@@H]1O [R-1, (2R,3S,5R)-5-(4-amino-2-oxopyrimidin-1(2H)-yl)-3-hydroxytetrahydrofuran-2-methyl butyl phosphate]
MIC [8]: 25 mg/mL | MIC (Escherichia coli (0102)): 50 mg/mL | MIC [9]: 25 mg/mL | MIC (Escherichia coli (6259)): 50 mg/mL | MIC (Escherichia coli (6258)): 50 mg/mL | MIC (Escherichia coli (6260)): 50 mg/mL | MIC [10]: 25 mg/mL | MIC (Escherichia coli (6098)): 50 mg/mL | MIC [11]: 25 mg/mL | MIC [12]: 25 mg/mL

CCCCOP(=O)(O)OC[C@H]1O[C@@H](n2ccc(N)nc2=O)C(F)(F)[C@@H]1O [LAI-006, ((2R,3R,5R)-5-(4-amino-2-oxopyrimidin-1(2H)-yl)-4,4-difluoro-3-hydroxytetrahydrofuran-2-yl)methyl butyl hydrogen phosphate]
MIC (E. faecalis MMX-3353): 3.13 | MIC [1]: 0.05 | MIC (E. coli MMX-8870): 0.78 | MIC [2]: 0.78 | MIC (S. agalactiae ATCC-13813): 0.10 | MIC [3]: 0.8 mg/mL | MIC [4]: 0.10 | MIC (S. aureus ATCC -3591): 3.13 | MIC [5]: 0.39 | MIC (C. freundii CDC-0157): 3.13 | MIC (E. faecalis ATCC-29212): 0.39 | MIC (H. influenzae ATCC-49247): 0.78 | MIC (E. coli ATCC-25922): 0.39 | MIC (E. cloacae ATCC BAA-2468): 0.39 | MIC (P. aeruginosa ATCC-27853): 0.78 | MIC (Escherichia coli (25922)): 0.6 mg/mL | MIC (K. pneumoniae ATCC-43816): 0.78 | MIC (E. faecium ATCC-35667): 1.56 | MIC [6]: 2.3 mg/mL | MIC (S. pyogenes ATCC-49399): 0.39 | MIC (M. morganii CDC-0519): 3.13 | MIC (A. baumannii ATCC-19606): 0.39 | MIC [7]: 0.10 | MIC (Candida albicans (22972)): 50 mg/mL | MIC (S. aureus ATCC-29213): 1.56 | MIC (P. mirabilis CDC-0155): 3.13 | MIC (E. faecium MMX-3355): 3.13 | MIC (C. striatum ATCC-6940): 0.78
